This experiment deals with ViroSTEM (mesenchymal stem cells into which measles virus has been introduced). Kind of experiment: Viability of ViroSTEM cold-stored in 30% autologous serum-containing physiological saline treated with aspirin. Type of experiment: cell-based, human. On the procedure: While ViroSTEM, which is mesenchymal stem cells into which measles virus has been introduced, was cold-stored in physiological saline containing aspirin and 30% autologous serum for 5 days, it was treated with aspirin at a concentration of 10 μg/ml to 100 μg/ml.
The period of time during which ViroSTEM cold-stored in physiological saline containing 50 μg/ml aspirin and 30% autologous serum was maintained as described above increased to 80 hours, indicating the stability of the virus in ViroSTEM cold-stored for 80 hours. After cold storage of ViroSTEM for 80 hours, the stem cells were cultured and then observed under a fluorescence microscope.

For the compound `CC(=O)Oc1ccccc1C(=O)O` [aspirin], the viability at 50 µg/mL (Homo sapiens, Mesenchymal stem cells, 72 h, aspirin 50 μg/ml, cold storage 3 days in physiological saline containing 30% autologous serum, without aspirin about 28.6%, read-out: cell viability of measles virus-infected stem cell therapeutic agent) is no less than 88%. For the same compound, the “most effective concentration of aspirin” value (tested 10 μg/ml to 100 μg/ml in vehicle containing autologous serum) stood at 50 µg/mL.

Values taken from patent US20230016479A1, “METHOD FOR PREPARING MESENCHYMAL STEM CELLS HAVING IMPROVED VIABILITY THROUGH ANTI-CANCER VIRUS INTRODUCTION” (priority 2019, published 2023).
